Experimental data taken from PubChem BioAssay AID1626 (SRMLSC, 2009).

System: M. tuberculosis H37Rv growth inhibition
Experiment: M. tuberculosis H37Rv growth inhibitors, H37Rv strain (AID 1626)
Conditions: for IC90: measured here: IC90 against H37Rv; for CC50: measured here: Vero cell cytotoxicity

| SMILES | IC50 [µM] | IC90 [µM] | CC50 [µM] |
| --- | --- | --- | --- |
| COc1ccc(C2CC(=O)N3C(=C2C#N)SCC3(O)c2ccccc2)cc1 (stereo not drawn) | 7 | 12 | > 40 |
| CCC(=O)OCCNc1cc(SCCC(=O)OC)c2nonc2c1[N+](=O)[O-] | 12.2 | 19.5 |  |
| CCCc1ccc(C2C3=C(CC(C)(C)CC3=O)NC3=C2C(=O)c2ccccc23)cc1 (stereo not drawn) | 5.54 | > 100 | > 40 |
| O=[N+]([O-])c1cc(-c2n[nH]c(-c3ccccc3)n2)cc([N+](=O)[O-])c1 | 28.4 | > 100 | > 40 |
| COc1ccc(N2C(=O)NC(=O)/C(=C/c3cccc(OC(=O)c4cccs4)c3)C2=O)cc1Cl | 5.35 | 17.5 |  |
| COc1ccc(NC2=CC(c3ccc(OC)cc3)N(c3ccc(OC)cc3)C2=O)cc1 (stereo not drawn) |  | > 100 | > 40 |
| CC(C)c1ccc(CNC(=O)CSCC(=O)Nc2ccc3ccccc3c2)cc1 | 18 | > 100 |  |
| CC1CC(C)CN(C(=O)c2ccc(CNc3c(N4CCCC4)c(=O)c3=O)cc2)C1 (stereo not drawn) | 1.46 | 1.64 |  |
| CCOc1ccc2ncc(S(=O)(=O)c3ccc(C)cc3)c(N3CCC4(CC3)OCCO4)c2c1 | 28.2 | > 100 | > 40 |
| COc1ccc(-c2nnc(SCC(=O)OC3CCCCC3)o2)cc1OC | < 0.195 | 1.04 | > 40 |
| CCOC(=O)CSc1ncnc2c1cnn2-c1ccc(Cl)cc1 | 1.03 | > 100 |  |
| COc1ccc2nc(C)cc(SCC(=O)OC(C)C)c2c1 | 9.36 | 13.8 |  |
| COc1ccc(SN=C2C(C)=CC(=O)C=C2C)cc1 | 11 | 12.3 |  |
| Cc1ccc(-n2cc(CN3CCC(CO)(Cc4cccc(C(F)(F)F)c4)CC3)cn2)cc1 | 4.31 | 7.09 | 23.7 |
| CCCn1c(NC(=O)c2ccco2)nc2ccccc21 | 5.87 | 18.6 | > 40 |
| CS(=O)(=O)Cc1nc2ccccc2oc1=O | 1.45 | 2.01 | > 40 |
| O=c1oc(/C=C/c2ccccc2)nc2ccccc12 | 12.7 | > 100 |  |
| Cc1ccc(OCc2nnc(SCc3cc(=O)[nH]c4ccccc34)n2-c2ccccc2)cc1 | 27.8 | > 100 | > 40 |
| Cc1ccc(-c2ccccc2NC(=O)CCl)o1 | 18.6 | > 100 | > 40 |
| Cc1ccc(C(O)(c2ccccc2)c2ccccc2C(C)N(C)C)c(C)c1 (stereo not drawn) | 11.7 | 19.9 | 39 |
| O=[N+]([O-])c1cccnc1N1CCC(c2cc(-c3cccc(C(F)(F)F)c3)n[nH]2)CC1 | 6.34 | 11 | > 40 |
| CCCCOC(=O)c1ccc(NC(=O)C(=O)NCc2cccnc2)cc1 | 22.1 | > 100 |  |
| CC(C)c1ccc(NC(=O)COc2ccc(C3SCCS3)cc2)cc1 |  | > 100 |  |
| CCOc1ccc(-c2nnc(NC(=O)c3ccc(OCC(C)C)c(OC)c3)o2)cc1 | 10.1 | > 100 | 25.3 |
| Cc1cccc(C(=O)Nc2nnc(-c3ccco3)o2)c1 | 0.695 | 3.56 | 37.1 |
| Cc1cc(OCCCCCn2ccnc2)cc(C)c1Cl | 4.17 | 5.19 | 24.6 |

| SMILES | IC50 [µM] | IC90 [µM] | CC50 [µM] |
| --- | --- | --- | --- |
| Cc1c(C(=O)Nc2nc3ccccc3[nH]2)oc2ccccc12 | 1.29 | 4.5 | > 40 |
| Cc1ccc(Nc2c(-c3ccccn3)nc3cc(C)ccn23)cc1 | 1.38 | 1.55 | 1.39 |
| COc1cc(OC)cc(C(=O)Nc2nc(-c3ccccc3)c(-c3ccccc3)o2)c1 | 0.322 | 4.94 | 30.9 |
| CN(C)c1ccc(C(=O)Nc2nnc(-c3ccc(Cl)cc3)o2)cc1 | 0.895 | > 100 | > 40 |
| O=[N+]([O-])c1ccc(Sc2cccc3cccnc23)c([N+](=O)[O-])c1 | 32.9 | > 100 | 4.55 |
| O=C(c1cnc(N2CCN(c3ccccn3)CC2)c2ccccc12)N1CCN(c2cccc(Cl)c2)CC1 | 8.67 | > 100 | > 40 |
| COc1cc2c(cc1OC)C1(Nc3c-2c(-c2ccccc2)nn3-c2ccccc2)C(=O)Nc2ccccc21 (stereo not drawn) | 7.21 | 13.2 | 23.7 |
| N=c1c2c(ncn1Cc1ccco1)Oc1c(ccc3ccccc13)C2c1ccccc1 (stereo not drawn) | 3.88 | 5.43 | 8.95 |
| O=C(Nc1cc(Cl)cc(Cl)c1)N1CCCC1 | 12.2 | 17.6 | > 40 |
| Cc1cc(NCCCn2ccnc2)n2nc(C)c(-c3ccc(Cl)cc3)c2n1 | 4.03 | 5.75 | 12.9 |
| COc1c(N2CCNC(C)C2)c(F)cc2c(=O)c(C(=O)O)cn(C3CC3)c12 (stereo not drawn) | < 0.195 | < 0.195 |  |
| CSc1nc2ccc(NS(=O)(=O)c3cccc(Cl)c3Cl)cc2s1 |  | > 100 |  |
| Cc1oc2c(c1C(=O)Nc1cccc3ccccc13)CCCC2 | 3.58 | 7.71 |  |
| O=C(Oc1c(Cl)cc(Cl)c2cccnc12)c1ccco1 | 1.28 | 1.78 | 10 |
| O=C(Nc1ccccc1F)C(=Cc1sc(N2CCOCC2)nc1-c1ccccc1)C(=O)Nc1ccccc1F | 51 | > 100 | > 40 |
| COc1ccc(CCNc2nc(N3CCCCC3)nc(N3CCCCC3)n2)cc1OC | 12.4 | 18.8 | > 40 |
| CCCCCc1cc(=O)oc2c(C(CCN3CCCC(C)C3)c3cc(OC)c(OC)c(OC)c3)c(OC)cc(OC)c12 (stereo not drawn) | 7.65 | 9.84 | 14.5 |
| O=C(CSc1nc2ccc(Cl)cc2[nH]1)Nc1ccc2c(c1)CCC2 | 29.8 | > 100 | > 40 |
| CCCCCOc1ccc(Br)cc1CSC(=N)N | 9.43 | 12 | 14.8 |
| COc1ccc(N2CCN(c3nc(NC(C)(C)C)nc(N4CCCCC4)n3)CC2)cc1 | 3.75 | 5.86 | > 40 |
| COc1cccc2sc(Nc3nc(-c4ccccn4)cs3)nc12 | < 0.195 | < 0.195 | 1.92 |
| COc1cccc2c1C(=O)c1c(O)c3c(c(O)c1C2=O)C[C@@](O)(C(=O)CO)C[C@@H]3O[C@H]1C[C@H](N)[C@H](O)[C@H](C)O1 | 13 | > 100 | 7.25 |
| Cn1cnc([N+](=O)[O-])c1S(=O)(=O)c1ccc(Cl)cc1 | 8.35 | 10.7 | 23.4 |
| O=C(OCC(=O)N1CCc2ccccc21)c1ccc(Cl)nc1 | 14.2 | > 100 |  |
| CC(=O)Nc1cccc(OCc2ccc(F)cc2)c1 |  | > 100 | > 40 |
| C=CCn1c(SCc2csc(-c3ccc(C)cc3)n2)nnc1-c1ccccc1OC | 16.5 | 23.8 | > 40 |

| SMILES | IC50 [µM] | IC90 [µM] | CC50 [µM] |
| --- | --- | --- | --- |
| COc1ccccc1-c1nnc(SCC(=O)Nc2cc(C)on2)o1 | 10.4 | 16.5 |  |
| CCn1c(NC(=O)c2cccs2)nc2ccccc21 | 5.32 | > 100 |  |
| O=S1(=O)CCC(N=Cc2ccc(-c3ccc(Cl)cc3)o2)C1 (stereo not drawn) | 6.54 | > 100 |  |
| COc1ccc(N=Cc2cc(Cl)ccc2O)cc1Cl | 7.49 | > 100 |  |
| COc1cc(CNCc2ccccn2)ccc1OCc1ccc(Cl)c(Cl)c1 | 5.63 | 7.7 | > 40 |
| CCCc1cc(-c2nc(-c3ccc(Br)cc3)cs2)ccn1 | 5.68 | 10.4 |  |
| CCS(=O)(=O)Nc1cccc(-c2cc(-c3ccccc3)c3cc(C)ccc3n2)c1 | 5.97 | 11.1 | > 40 |
| NC1CCN(c2c(F)cc3c(=O)c(C(=O)O)cn(C4CC4)c3c2Cl)C1 (stereo not drawn) | < 0.391 | < 0.391 |  |
| C/C(=C\C(=S)Nc1ccccc1)Nc1ccc2ccccc2c1 | 4.39 | 48.9 | > 40 |
| O=C(c1ccc([N+](=O)[O-])s1)N1CCN(c2cccc(Cl)c2)CC1 | 9.2 | 12.8 | 31.6 |
| CCOC(=O)c1cnc(-n2nc(C)cc2C)nc1Nc1ccc(N(C)C)cc1 | < 0.195 | < 0.195 | 23.9 |
| FC(F)(F)c1nnc(-c2ccccc2)nc1Sc1ccccc1 | 21.9 | 25.3 | > 40 |
| COC(=O)C1C(O)=C(C=Nc2ccc3ccccc3c2)C(=O)CC1(C)C (stereo not drawn) | 33.7 | > 100 |  |
| O=C1C=C(Nc2ccccc2)C(=O)c2ccccc21 | 11.7 | 13.4 | > 40 |
| N#CC(c1ccc(Cl)cc1)c1ccc2c(C(F)(F)F)cc(C(F)(F)F)nc2n1 (stereo not drawn) | 0.571 | 0.691 | 0.904 |
| Cn1c(-c2ccccc2)cc2c3no[n+]([O-])c3ccc21 | < 0.195 | 0.445 | 2.6 |
| CSc1ccc(NC(=O)N2CCN(c3nc4ccccc4s3)CC2)cc1 | 9.18 | > 100 | > 40 |
| Cc1cc(C)n(-c2nc(N(c3ccccc3)c3ccccc3)nc(-n3nc(C)cc3C)n2)n1 | 2.76 | 10.4 | > 40 |
| O=[N+]([O-])c1cc(S(=O)(=O)Nc2ccccc2)ccc1N1CCN(c2ccccc2)CC1 | 14.5 | 25.5 | 28.2 |
| O=C(Nc1nc(-c2ccc(-c3ccccc3)cc2)cs1)c1cnccn1 |  | > 100 | > 40 |
| CC(=O)OCCCNc1cc(Sc2nc3ccccc3s2)c2nonc2c1[N+](=O)[O-] | 7.74 | 10.1 | 16.3 |
| CC(C)(C)C(=O)/C=c1\s/c(=C\c2ccc(-c3ccc([N+](=O)[O-])cc3)o2)c(=O)n1CC(=O)NC(N)=O |  | > 100 | > 40 |
| Cc1ccc(NC(=O)/C=C/c2ccc([N+](=O)[O-])s2)c(C)c1 | 1.79 | 4.42 | 19.5 |
| N#Cc1ccc(/C=C/C(=O)c2cccnc2)cc1 | 4.84 | 6.15 | 19.3 |
| Cc1ccc(Nc2ccccc2N)cc1 | 1.46 | 1.66 |  |
